Data as given in PubChem BioAssay (NCI).
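Where inhibition never reached the appropriate level, the endpoint shown equals the highest concentration tested. Otherwise, values were interpolated linearly from a five-concentration, 48-hour dose response in 96-well plates. The concentration for full growth arrest is given as TGI.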

Tests used:
Assay in all cases: growth of human tumour cells (NCI), 48 h
SN12C renal = test system: SN12C renal
U251 CNS = test system: U251 CNS
IGROV1 ovarian = test system: IGROV1 ovarian
HS 578T breast = test system: HS 578T breast
NCI-H460 lung = test system: NCI-H460 lung
MOLT-4 leukemia = test system: MOLT-4 leukemia
MALME-3M melanoma = test system: MALME-3M melanoma
SF-539 CNS = test system: SF-539 CNS
SF-268 CNS = test system: SF-268 CNS
NCI-H522 lung = test system: NCI-H522 lung
UO-31 renal = test system: UO-31 renal
HCT-116 colon = test system: HCT-116 colon
CCRF-CEM leukemia = test system: CCRF-CEM leukemia
NCI/ADR-RES ovarian = test system: NCI/ADR-RES ovarian
HL-60(TB) leukemia = test system: HL-60(TB) leukemia
786-0 renal = test system: 786-0 renal
SK-OV-3 ovarian = test system: SK-OV-3 ovarian
MDA-MB-231 breast = test system: MDA-MB-231 breast
OVCAR-5 ovarian = test system: OVCAR-5 ovarian
ACHN renal = test system: ACHN renal
COLO 205 colon = test system: COLO 205 colon
OVCAR-3 ovarian = test system: OVCAR-3 ovarian
T-47D breast = test system: T-47D breast
MDA-MB-435 = test system: MDA-MB-435
UACC-257 melanoma = test system: UACC-257 melanoma
NCI-H23 lung = test system: NCI-H23 lung
PC-3 prostate = test system: PC-3 prostate
SNB-19 CNS = test system: SNB-19 CNS
A549 NSCLC = test system: A549 NSCLC
HOP-62 NSCLC = test system: HOP-62 NSCLC
RXF 393 renal = test system: RXF 393 renal
OVCAR-8 ovarian = test system: OVCAR-8 ovarian
SK-MEL-28 melanoma = test system: SK-MEL-28 melanoma
UACC-62 melanoma = test system: UACC-62 melanoma
BT-549 breast = test system: BT-549 breast
RPMI-8226 leukemia = test system: RPMI-8226 leukemia
HCT-15 colon = test system: HCT-15 colon
SNB-75 CNS = test system: SNB-75 CNS
TK-10 renal = test system: TK-10 renal
EKVX NSCLC = test system: EKVX NSCLC
HT29 colon = test system: HT29 colon
NCI-H226 lung = test system: NCI-H226 lung
DU-145 prostate = test system: DU-145 prostate
M14 melanoma = test system: M14 melanoma
SF-295 CNS = test system: SF-295 CNS
KM12 colon = test system: KM12 colon
LOX IMVI melanoma = test system: LOX IMVI melanoma
A498 renal = test system: A498 renal
SK-MEL-5 melanoma = test system: SK-MEL-5 melanoma
HOP-92 NSCLC = test system: HOP-92 NSCLC
SW-620 colon = test system: SW-620 colon
K-562 leukemia = test system: K-562 leukemia
SK-MEL-2 melanoma = test system: SK-MEL-2 melanoma
MDA-N = test system: MDA-N
CAKI-1 renal = test system: CAKI-1 renal

CC1=NNC(=O)C1C1CC(c2c[nH]c3ccccc23)=NN(c2ccccc2)C1=O (stereo not given)
TGI (SN12C renal): > 100 µM | TGI (U251 CNS): > 100 µM | TGI (IGROV1 ovarian): > 100 µM | TGI (HS 578T breast): > 100 µM | TGI (NCI-H460 lung): > 100 µM | TGI (MOLT-4 leukemia): > 100 µM | TGI (MALME-3M melanoma): > 100 µM | TGI (SF-539 CNS): > 100 µM | TGI (SF-268 CNS): > 100 µM | TGI (NCI-H522 lung): 77.9 µM | TGI (UO-31 renal): > 100 µM | TGI (HCT-116 colon): > 100 µM | TGI (CCRF-CEM leukemia): 72.6 µM | TGI (NCI/ADR-RES ovarian): > 100 µM | TGI (HL-60(TB) leukemia): 92.4 µM | TGI (786-0 renal): 57.7 µM | TGI (SK-OV-3 ovarian): > 100 µM | TGI (MDA-MB-231 breast): > 100 µM | TGI (OVCAR-5 ovarian): > 100 µM | TGI (ACHN renal): > 100 µM | TGI (COLO 205 colon): > 100 µM | TGI (OVCAR-3 ovarian): > 100 µM | TGI (T-47D breast): > 100 µM | TGI (MDA-MB-435): > 100 µM | TGI (UACC-257 melanoma): > 100 µM | TGI (NCI-H23 lung): > 100 µM | TGI (PC-3 prostate): > 100 µM | TGI (SNB-19 CNS): > 100 µM | TGI (A549 NSCLC): > 100 µM | TGI (HOP-62 NSCLC): > 100 µM | TGI (RXF 393 renal): > 100 µM | TGI (OVCAR-8 ovarian): > 100 µM | TGI (SK-MEL-28 melanoma): > 100 µM | TGI (UACC-62 melanoma): > 100 µM | TGI (BT-549 breast): > 100 µM | TGI (RPMI-8226 leukemia): > 100 µM | TGI (HCT-15 colon): > 100 µM | TGI (SNB-75 CNS): > 100 µM | TGI (TK-10 renal): > 100 µM | TGI (EKVX NSCLC): > 100 µM | TGI (HT29 colon): > 100 µM | TGI (NCI-H226 lung): > 100 µM | TGI (DU-145 prostate): > 100 µM | TGI (M14 melanoma): > 100 µM | TGI (SF-295 CNS): > 100 µM | TGI (KM12 colon): > 100 µM | TGI (LOX IMVI melanoma): > 100 µM | TGI (A498 renal): > 100 µM | TGI (SK-MEL-5 melanoma): > 100 µM | TGI (HOP-92 NSCLC): > 100 µM | TGI (SW-620 colon): > 100 µM | TGI (K-562 leukemia): > 100 µM | TGI (SK-MEL-2 melanoma): > 100 µM | TGI (MDA-N): > 100 µM | TGI (CAKI-1 renal): > 100 µM
